Assay results: US20150174034A1, “TYROSINASE INHIBITORS” (Avon Products, Inc., priority 2013, published 2015)

What was measured:
B16 mouse melanoma cells = test: Inhibition of melanin production, B16 melanoma cell assay; assay type: cell-based; details: 4 days, alpha MSH, normalized to cell viability
Experimental: The effects of various test compounds on melanin levels were determined by performing assays using B16 melanoma cells. These cells are known to constitutively produce melanin and are a commonly utilized and accepted model system for monitoring the inhibition of melanin synthesis. The B16 mouse melanoma cells were seeded (ATCC, cat. #: CRL-6475) into 96-well tissue culture-treated plates (BD Falcon) and treated with test actives or controls in phenol red free DMEM (Mediatech; cat. #: 17-205-CV) with 2 nanogram/ml of alpha MSH (Fluka; cat #:63605). The cells were examined for their ability to modulate pigment formation. […] Tests were performed in 6 replicates each. Following the treatment period (4 days), the level of pigment produced or melanin synthesized was quantified by reading the absorbance at 540 nm using a standard microplate reader (Tecan Group Ltd.).
After quantifying the amount of melanin, cell viability was determined using the MTT conversion method. The MTT conversion method measures the reduction of the MTT dye from a yellow colored, water-soluble, tetrazolium salt to a bluish-purple colored insoluble formazan precipitate by NAD(P)H-dependent microsomal dehydrogenase enzymes, which only function in viable cells. The intensity of the blue color is indicative of cell viability. After quantifying the amount of melanin pigment produced, the cells were exposed to MTT dye solution (1 mg/ml) for two to three hours. Formazan material was solubilized with reagent alcohol (95% ethanol: 5% isopropanol) and shaken on an orbital shaker for 15-30 minutes. MTT dye uptake and conversion by viable cells were determined by measuring the extracted formazan at 570 nm using a microplate reader. Total pigmentation was calculated, normalized to cell viability values and expressed as the average percent change in melanin activity relative to control of the six experiments performed.
The assay data in Table 2 uses the following scale: 0: <10% decrease; +: between […] decrease; ++: 31-50% decrease; +++: between 51-70% decrease; ++++: >71% decrease; C=cytotoxic

[1] = tested on: Human Epidermal Melanocytes, neonatal, darkly pigmented donor (HEMn-DP); test: Human primary melanocyte pigmentation assay (HEMn-DP); assay type: cell-based; details: 5 days, normalized to cell viability
Experimental: The effects of various test compounds on melanin productions were determined by performing assays using Human Epidermal Melanocytes, neonatal, darkly pigmented donor (HEMn-DP). The HEMn-DP cells were seeded (Invitrogen; cat. #: C-202-5C) into 6-well tissue culture-treated plates (BD Falcon) and treated with test actives or controls in Medium 254 (Invitrogen; cat. #: M-254-500) supplemented with 1% HMSG (Invitrogen; cat. #: S-002-5) and 1% P/S. The cells were examined for their ability to modulate pigment formation. […] Tests were performed in triplicates each. Following the treatment period (5 days), supernatants were aspirated. The melanin was extracted with 0.5 ml of 2N NaOH for 30 minutes at 80° C. The level of melanin synthesized within the cells was quantified by reading the absorbance at 405 nm using a standard microplate reader (Tecan Group Ltd.).
The cell viability was determined using the MTT conversion method. The MTT conversion method measures the reduction of the MTT dye from a yellow colored, water-soluble, tetrazolium salt to a bluish-purple colored insoluble formazan precipitate by NAD(P)H-dependent microsomal dehydrogenase enzymes, which only function in viable cells. The intensity of the blue color is indicative of cell viability. […] The cells were then exposed to MTT dye solution (1 mg/ml) for two to three hours. Formazan material was solubilized with reagent alcohol (95% ethanol: 5% isopropanol) and shaken on an orbital shaker for 15-30 minutes. MTT dye uptake and conversion by viable cells were determined by measuring the extracted formazan at 570 nm using a microplate reader. Total pigmentation was calculated and normalized to cell viability values. The average percent change in melanin relative to control of the triplicates from the Human Primary Melanocyte Pigmentation Assay (HEMn-DP Pigmentation) is reported in the Table 3 in accordance with the scale: 0: <10% decrease in pigmentation level; +: between 11-30% decrease; ++: between 31-50% decrease; +++: between 51-70% decrease; ++++: >71% decrease; C=cytotoxic.

[2] = tested on: MELANODERM (MEL-300-B) human skin model; test: 3D skin equivalent tissue pigmentation assay (MELANODERM); assay type: cell-based; details: topical, tissues collected Day 11
Experimental: The effect of the tyrosinase inhibitors on melanin levels was investigated using a MELANODERM™ (MEL-300-B, MatTek Corp., Ashland, Mass.) human skin model. MELANODERM™ is a viable reconstituted three-dimensional human skin equivalent containing melanocytes derived from African-American donors. Tissues were maintained in culture medium EPI-100-NMM-113 at 37° C. as recommended by the manufacturer.
10 μl of the solution was applied topically to the MELANODERM™ tissue while culture medium was added on days 1, 2, 4, 7, and 9. Control tissues were treated with the 10 μl of corresponding vehicle only. On Day 11, tissues were collected and homogenized in a buffer containing 1% SDS, 50 mM EDTA, and 10 mM Tris, pH 6.8. To each homogenate, protease K (5 mg/ml) was added and incubated overnight at 45° C. Additional protease K was added and incubated for 4 hours at 45° C., followed by the addition of 0.5M sodium carbonate and 30% H2O2 and incubation at 80° C. for 30 minutes. The samples were cooled down to room temperature, and extracted with chloroform/methanol (2:1). After centrifugation at 10,000 g for 10 minutes, absorbance of the top phase was measured at 450 nm. Percent change in melanin levels in treated tissue was calculated relative to control. The average percent change in melanin relative to control of the three tissues is reported in the Table 4 in accordance with the scale: 0: <7% decrease in pigmentation level; +: between 8-14% decrease; ++: between 15-20% decrease; +++: between 21-30% decrease; ++++: >31% decrease; C=cytotoxic

Mushroom tyrosinase = Mushroom tyrosinase assay; assay type: biochemical; details: L-Tyrosine substrate, 25° C., 30 min
Experimental: Mushroom tyrosinase and L-Tyrosine were obtained from Sigma-Aldrich, Inc. (St. Louis, Mo.). The enzyme activity was measured in buffer containing 100 mM phosphate buffer pH 6.8, 5% absolute ethanol, 2 micrograms/milliliter mushroom tyrosinase, and 0.2 mg/ml L-Tyrosine. The reaction (conversion of L-Tyrosine to DOPAchrome) was conducted in triplicates at 25° C. for 30 min, and absorbance was then measured at 492 nm. Kojic Acid was used as a positive control inhibitor in these assays. Percent change in tyrosinase activity relative to vehicle control was calculated.

| Structure (SMILES) | B16 Assay Pigmentation Decrease (percent change in melanin compared to DMSO vehicle control) (B16 mouse melanoma cells; concentration 0.0001%) | B16 Assay Pigmentation Decrease (percent change in melanin compared to DMSO vehicle control) (B16 mouse melanoma cells; concentration 0.001%) | Human primary melanocyte pigmentation assay (change in melanin compared to DMSO vehicle control) ([1]; concentration 0.0001%) | Human primary melanocyte pigmentation assay (change in melanin compared to DMSO vehicle control) ([1]; concentration 0.001%) | 3D Tissue Pigmentation Assay (change in melanin compared to vehicle control) ([2]; concentration 0.05%) | 3D Tissue Pigmentation Assay (change in melanin compared to vehicle control) ([2]; concentration 0.1%) | Tyrosinase Inhibition (percent change in tyrosinase activity compared to DMSO vehicle control) (Mushroom tyrosinase; concentration 0.001%) [%] | Tyrosinase Inhibition (percent change in tyrosinase activity compared to DMSO vehicle control) (Mushroom tyrosinase; concentration 0.01%) [%] |
| --- | --- | --- | --- | --- | --- | --- | --- | --- |
| C/C(=N/NC(=S)NCC1CCCO1)c1ccc2c(c1)OCO2 (centres unmarked) [AV1221] | ++ (31-50% decrease) | ++++ (>71% decrease) | + (between 11-30% decrease) | ++++ (>71% decrease) | +++ (between 21-30% decrease) | ++ (between 15-20% decrease) | – | – |
| C/C(=N/NC(=S)NC(C)C)c1ccc2c(c1)OCO2 [AV2043] | ++ (31-50% decrease) | – | + (between 11-30% decrease) | ++ (between 31-50% decrease) | +++ (between 21-30% decrease) | +++ (between 21-30% decrease) | – | – |
| Cc1ccc(/C=N/NC(=S)NCC2CCCO2)s1 (centres unmarked) [AV3793] | + (between 20-30% decrease) | +++ (between 51-70% decrease) | 0 (<10% decrease in pigmentation level) | +++ (between 51-70% decrease) | ++ (between 15-20% decrease) | +++ (between 21-30% decrease) | – | – |
| Oc1ccc(C=NNC(=S)NCC2CCCO2)c(O)c1 (centres unmarked) [AV6989] | −79% | – | – | – | – | – | −36 | −75 |
